Values belong to the compound of their own block, whether it stands above or below them.
Key:
[1] = target: T1, B1R receptor of the rat (Rattus norvegicus, UniProt P97583); experiment: Functional study on the bradykinin receptor 1 (B1R), FLIPR Ca2+ assay, rB1R cells; format: cell-based; conditions: agonist Des-Arg9-bradykinin 100 nM, % inhibition compared with the maximum achievable inhibition; for inhibition at 10 µM: CHO-K1, test substance 10 μM, read-out: B1R Antagonism, rat [10 μM] % Inhibition; for B1R Antagonism, rat [10 μM] % Inhibition: test substance 10 μM, rB1R CHO K1 cells
T1 construct: host or cells: CHO K1 cells (Chinese hamster ovary), stably transfected
T1 sequence (P97583 1-337): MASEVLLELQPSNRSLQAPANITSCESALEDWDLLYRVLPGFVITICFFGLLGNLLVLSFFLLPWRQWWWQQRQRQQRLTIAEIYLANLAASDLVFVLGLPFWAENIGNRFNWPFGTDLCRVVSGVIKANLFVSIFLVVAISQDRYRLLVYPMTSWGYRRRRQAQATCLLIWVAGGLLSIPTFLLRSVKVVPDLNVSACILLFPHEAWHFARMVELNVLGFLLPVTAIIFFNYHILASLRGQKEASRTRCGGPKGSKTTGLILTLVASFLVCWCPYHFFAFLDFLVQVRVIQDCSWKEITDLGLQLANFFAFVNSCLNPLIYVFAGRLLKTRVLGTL
In short: (§1)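 Readout: peak Fluo-4 Ca2+ fluorescence, FLIPR. Stable CHO K1 hB1R or rB1R cells; cpd 10 μM, 10 min preincubation, then agonist (hB1R: Lys-Des-Arg9-BK 0.5 nM; rB1R: Des-Arg9-BK 100 nM). Value = % inhibition relative to maximal achievable inhibition.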

[2] = target: T2, human B1R receptor (Homo sapiens, UniProt P46663); experiment: Functional study on the bradykinin receptor 1 (B1R), FLIPR Ca2+ assay, hB1R cells; format: cell-based; conditions: agonist Lys-Des-Arg9-bradykinin 0.5 nM, % inhibition compared with the maximum achievable inhibition; for inhibition at 10 µM: CHO-K1, test substance 10 μM, read-out: B1R Antagonism, human [10 μM] % Inhibition; for B1R Antagonism, human [10 μM] % Inhibition: test substance 10 μM, hB1R CHO K1 cells
T2 construct: host or cells: CHO K1 cells (Chinese hamster ovary), stably transfected
T2 sequence (P46663 1-353): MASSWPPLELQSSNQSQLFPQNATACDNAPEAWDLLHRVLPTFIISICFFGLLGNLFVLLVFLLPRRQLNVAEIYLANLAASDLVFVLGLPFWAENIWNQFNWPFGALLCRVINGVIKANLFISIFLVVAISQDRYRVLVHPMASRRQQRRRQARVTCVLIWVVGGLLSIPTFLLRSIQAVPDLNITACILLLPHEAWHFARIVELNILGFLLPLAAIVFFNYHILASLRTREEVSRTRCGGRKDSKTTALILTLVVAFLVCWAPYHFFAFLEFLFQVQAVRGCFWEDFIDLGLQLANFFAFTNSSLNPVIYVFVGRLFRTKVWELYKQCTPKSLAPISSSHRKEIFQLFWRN
In short: as §1

Compound: COc1cc(C)c(S(=O)(=O)N2CCCCC2COCC(=O)N2CCC(N3CCn4cccc4C3)CC2)c(C)c1 (stereo not drawn) [Example 211, 1-(4-(3,4-dihydropyrrolo[1,2-a]pyrazin-2(1H)-yl)piperidin-1-yl)-2-((1-(4-methoxy-2,6-dimethylphenylsulfonyl)piperidin-2-yl)methoxy)ethanone]
inhibition at 10 µM [1]: 100% | inhibition at 10 µM [2]: 106%

Compound: CC(C)N(CCN1CCN(C(=O)COCC2CCCCN2S(=O)(=O)c2c(Cl)cccc2Cl)CC1)C(C)C (stereo not drawn) [Example 281, 2-((1-(2,6-dichlorophenylsulfonyl)piperidin-2-yl)methoxy)-1-(4-(2-(diisopropylamino)ethyl)piperazin-1-yl)ethanone]
inhibition at 10 µM [1]: 92.4% | inhibition at 10 µM [2]: 104%

Compound: O=C(COCC1Cc2ccccc2CN1S(=O)(=O)c1ccc(Cl)cc1Cl)N1CCC(N2CCCC2)CC1 (stereo not drawn) [Example 17]
B1R Antagonism, rat [10 μM] % Inhibition [1]: 96.94% | B1R Antagonism, human [10 μM] % Inhibition [2]: 95.53%

Compound: COc1cc(C)c(S(=O)(=O)N2CCCCC2COCC(=O)N2CCCC2c2ccccn2)c(C)c1 (stereo not drawn) [Example 247, 2-((1-(4-methoxy-2,6-dimethylphenylsulfonyl)piperidin-2-yl)methoxy)-1-(2-(pyridin-2-yl)pyrrolidin-1-yl)ethanone]
inhibition at 10 µM [1]: 96.8% | inhibition at 10 µM [2]: 70.8%

Compound: CN1CCC(N2CCN(C(=O)COCC3CCc4ccccc4N3S(=O)(=O)c3ccc4ccccc4c3)CC2)CC1 (stereo not drawn) [Example 203, 1-(4-(1-methylpiperidin-4-yl)piperazin-1-yl)-2-((1-(naphthalen-2-ylsulfonyl)-1,2,3,4-tetrahydroquinolin-2-yl)methoxy)ethanone]
inhibition at 10 µM [1]: 98.8% | inhibition at 10 µM [2]: 103%

Compound: COc1cc(C)c(S(=O)(=O)N2Cc3ccccc3CC2COCC(=O)N2CCC(CCN3CCCCC3)CC2)c(C)c1C (stereo not drawn) [Example 276, 2-((2-(4-methoxy-2,3,6-trimethylphenylsulfonyl)-1,2,3,4-tetrahydroisoquinolin-3-yl)methoxy)-1-(4-(2-(piperidin-1-yl)ethyl)piperidin-1-yl)ethanone]
inhibition at 10 µM [1]: 94.2% | inhibition at 10 µM [2]: 98.9%

Compound: O=C(COCC1CCCN1S(=O)(=O)c1c(Cl)cccc1Cl)NCc1ccc(CN2CCCC2)cc1 (stereo not drawn) [Example 322, 2-((1-(2,6-dichlorophenylsulfonyl)pyrrolidin-2-yl)methoxy)-N-(4-(pyrrolidin-1-ylmethyl)benzyl)acetamide]
inhibition at 10 µM [1]: 98.7% | inhibition at 10 µM [2]: 102%

Compound: CCOCCN1CCN(C(=O)COCC2Cc3ccccc3CN2S(=O)(=O)c2c(C)cc(C)cc2C)CC1 (stereo not drawn) [Example 245, 1-(4-(2-ethoxyethyl)piperazin-1-yl)-2-((2-(mesitylsulfonyl)-1,2,3,4-tetrahydroisoquinolin-3-yl)methoxy)ethanone]
inhibition at 10 µM [1]: 80.5% | inhibition at 10 µM [2]: 69.9%

Compound: Cc1cc(C)nc(CC2CCCN2C(=O)COCC2CCCCN2S(=O)(=O)c2cccc3ccccc23)c1 (stereo not drawn) [Example 240, 1-(2-((4,6-dimethylpyridin-2-yl)methyl)pyrrolidin-1-yl)-2-((1-(naphthen-1-ylsulfonyl)piperidin-2-yl)methoxy)ethanone]
B1R Antagonism, rat [10 μM] % Inhibition [1]: 97.3% | B1R Antagonism, human [10 μM] % Inhibition [2]: 78.48%

Compound: O=C(COCC1CCCCN1S(=O)(=O)c1c(Cl)cc(Cl)cc1Cl)NCc1ccc(CN2CCOCC2)cc1 (stereo not drawn) [Example 30, N-(4-morpholin-4-ylmethyl-benzyl)-2-[1-(2,4,6-trichloro-phenylsulfonyl)-piperidin-2-ylmethoxy]-acetamide]
inhibition at 10 µM [1]: 108% | inhibition at 10 µM [2]: 84%

Compound: COc1cc(C)c(S(=O)(=O)N2CCCCC2COCC(=O)N2CCC(N3CCc4cc(F)ccc4C3)CC2)c(C)c1 (stereo not drawn) [Example 200, 1-(4-(6-fluoro-3,4-dihydroisoquinolin-2(1H)-yl)piperidin-1-yl)-2-((1-(4-methoxy-2,6-dimethylphenylsulfonyl)piperidin-2-yl)methoxy)ethanone]
inhibition at 10 µM [1]: 98.7% | inhibition at 10 µM [2]: 102%

Compound: CN1CCN(C2CCN(C(=O)COCC3CCCCN3S(=O)(=O)c3ccc(Cl)c(Cl)c3)CC2)CC1 (stereo not drawn) [Example 28, 2-[1-(3,4-dichloro-phenylsulfonyl)-piperidin-2-ylmethoxy]-1-[4-(4-methyl-piperazin-1-yl)-piperidin-1-yl]-ethanone]
inhibition at 10 µM [1]: 0% | inhibition at 10 µM [2]: 84.7%

Compound: CN1CCC(N2CCN(C(=O)COCC3CCCCN3S(=O)(=O)c3cccc4ccccc34)CC2)CC1 (stereo not drawn) [Example 110, 1-(4-(1-methylpiperidin-4-yl)piperazin-1-yl)-2-((1-(naphthalen-1-ylsulfonyl)piperidin-2-yl)methoxy)ethanone]
inhibition at 10 µM [1]: 102% | inhibition at 10 µM [2]: 102%

Next, values leading:

inhibition at 10 µM [1]: 102% | inhibition at 10 µM [2]: 98.8%
Compound: CCN1CCN(C(=O)COCC2CCCN2S(=O)(=O)c2c(C)cc(OC)cc2C)CC1 (stereo not drawn) [Example 517, 1-(4-ethylpiperazin-1-yl)-2-((1-(4-methoxy-2,6-dimethylphenylsulfonyl)pyrrolidin-2-yl)methoxy)ethanone]

inhibition at 10 µM [1]: 103% | inhibition at 10 µM [2]: 101%
Compound: COc1cc(C)c(S(=O)(=O)N2CCCC2COCC(=O)N2CCN(Cc3ccc(Cl)c(Cl)c3)CC2)c(C)c1 (stereo not drawn) [Example 349, 1-(4-(3,4-dichlorobenzyl)piperazin-1-yl)-2-((1-(4-methoxy-2,6-dimethylphenylsulfonyl)pyrrolidin-2-yl)methoxy)ethanone]

inhibition at 10 µM [1]: 99.5% | inhibition at 10 µM [2]: 101%
Compound: COc1cc(C)c(S(=O)(=O)N2CCCCC2COCC(=O)N2CCN(Cc3ccc(C)cc3)CC2)c(C)c1 (stereo not drawn) [Example 385, 2-((1-(4-methoxy-2,6-dimethylphenylsulfonyl)piperidin-2-yl)methoxy)-1-(4-(4-methylbenzyl)piperazin-1-yl)ethanone]

inhibition at 10 µM [1]: 73.4% | inhibition at 10 µM [2]: 26.2%
Compound: COc1cc(C)c(S(=O)(=O)N2CCCC2COCC(=O)Nc2ccc3c(c2)ncn3C)c(C)c1 (stereo not drawn) [Example 494, 2-((1-(4-methoxy-2,6-dimethylphenylsulfonyl)pyrrolidin-2-yl)methoxy)-N-(1-methyl-1H-benzo[d]imidazol-5-yl)acetamide]

inhibition at 10 µM [1]: 104% | inhibition at 10 µM [2]: 103%
Compound: CN1CCCN(C(=O)COCC2CCCCN2S(=O)(=O)c2c(Cl)cccc2Cl)CC1 (stereo not drawn) [Example 483, 2-((1-(2,6-dichlorophenylsulfonyl)piperidin-2-yl)methoxy)-1-(4-methyl-1,4-diazepan-1-yl)ethanone]

B1R Antagonism, rat [10 μM] % Inhibition [1]: 95.62% | B1R Antagonism, human [10 μM] % Inhibition [2]: 98.07%
Compound: 2-((1-(2,6-dichlorophenylsulfonyl)piperidin-2-yl)methoxy)-N-(2-(piperidin-1-yl)ethyl)acetamide [Example 440]

inhibition at 10 µM [1]: 99.8% | inhibition at 10 µM [2]: 103%
Compound: O=C(COCC1CCCCN1S(=O)(=O)c1c(Cl)cc(Cl)cc1Cl)N1CCC(c2ccncc2)C1 (stereo not drawn) [Example 390, 1-(3-(pyridin-4-yl)pyrrolidin-1-yl)-2-((1-(2,4,6-trichlorophenylsulfonyl)piperidin-2-yl)methoxy)ethanone]

inhibition at 10 µM [1]: 99.1% | inhibition at 10 µM [2]: 31.5%
Compound: O=C(COCC1CCCCN1S(=O)(=O)c1c(Cl)cc(Cl)cc1Cl)NCc1ccncc1 (stereo not drawn) [Example 394, N-(pyridin-4-ylmethyl)-2-((1-(2,4,6-trichlorophenylsulfonyl)piperidin-2-yl)methoxy)acetamide]

inhibition at 10 µM [1]: 96.3% | inhibition at 10 µM [2]: 96.7%
Compound: COc1cc(C)c(S(=O)(=O)N2CCCC2COCC(=O)N2CCC(c3nc4cc(C)ccc4[nH]3)CC2)c(C)c1 (stereo not drawn) [Example 474, 2-((1-(4-methoxy-2,6-dimethylphenylsulfonyl)pyrrolidin-2-yl)methoxy)-1-(4-(5-methyl-1H-benzo[d]imidazol-2-yl)piperidin-1-yl)ethanone]

inhibition at 10 µM [1]: 102% | inhibition at 10 µM [2]: 62.5%
Compound: O=C(COCC1CCCN1S(=O)(=O)c1c(Cl)cccc1Cl)N1CCN(c2cccc(Cl)c2)CC1 (stereo not drawn) [Example 354, 1-(4-(3-chlorophenyl)piperazin-1-yl)-2-((1-(2,6-dichlorophenylsulfonyl)pyrrolidin-2-yl)methoxy)ethanone]

inhibition at 10 µM [1]: 99.7% | inhibition at 10 µM [2]: 92.5%
Compound: CCN(Cc1ccncc1)C(=O)COCC1CCCN1S(=O)(=O)c1c(C)cc(OC)cc1C (stereo not drawn) [Example 466, N-ethyl-2-((1-(4-methoxy-2,6-dimethylphenylsulfonyl)pyrrolidin-2-yl)methoxy)-N-(pyridin-4-ylmethyl)acetamide]
